Values after ≈ are worked out from the molar mass of the structure shown.
Columns and labels:
Format in all cases: functional
[1] = test system: Pseudomonas aeruginosa; test: Antibacterial activity against Pseudomonas aeruginosa by broth microdilution technique
[2] = test system: Staphylococcus epidermidis; test: Antibacterial activity against Staphylococcus epidermidis ATCC 12228 by broth microdilution technique
[3] = test system: Enterococcus faecalis; test: Antibacterial activity against Enterococcus faecalis ATCC 29212 by broth microdilution technique
[4] = test system: Staphylococcus aureus; test: Antibacterial activity against Staphylococcus aureus ATCC 25923 by broth microdilution technique
[5] = test system: Escherichia coli; test: Antibacterial activity against Escherichia coli by broth microdilution technique
[6] = test system: Staphylococcus aureus; test: Antibacterial activity against multidrug resistant Staphylococcus aureus clinical isolate by broth microdilution technique
[7] = test system: Pseudomonas aeruginosa; test: Antibacterial activity against multidrug resistant Pseudomonas aeruginosa clinical isolate by broth microdilution technique
[8] = test system: Staphylococcus epidermidis; test: Selectivity ratio of MIC of ciprofloxacin to MIC of compound for Staphylococcus epidermidis ATCC 12228

Question: Which results are given for `O=C(O)c1cn(C2CC2)c2nc(N3CCC(n4cc(-c5ccccc5)nn4)CC3)c(F)cc2c1=O`?
Answer: MIC [1]: > 32 µg/mL; MIC [2]: 0.5 µg/mL (≈ 1.05 µM); MIC [3]: 1 µg/mL (≈ 2.11 µM); MIC [4]: 0.5 µg/mL (≈ 1.05 µM); MIC [5]: 32 µg/mL (≈ 67.4 µM); MIC [6]: 0.5 µg/mL (≈ 1.05 µM)

Question: Which MIC [1] does the source give for `O=C(O)c1cn(C2CC2)c2nc(N3CCC(n4cc(/C=N/O)nn4)CC3)c(F)cc2c1=O` here?
Answer: Its MIC is 32 µg/mL (≈ 72.5 µM).

Question: And the MIC [7]?
Answer: The MIC was 32 µg/mL (≈ 72.5 µM).

Question: What about the MIC [2] of the same molecule?
Answer: Its MIC is 1 µg/mL (≈ 2.27 µM).

Question: What about the MIC [3] of the same molecule?
Answer: Its MIC is 4 µg/mL (≈ 9.06 µM).

Question: What about the MIC [4] of the same molecule?
Answer: The MIC was 1 µg/mL (≈ 2.27 µM).

Question: What about the MIC [5] of the same molecule?
Answer: Its MIC is 2 µg/mL (≈ 4.53 µM).

Question: And the MIC [6]?
Answer: Its MIC is > 32 µg/mL.

Question: `O=C(O)c1cn(C2CC2)c2nc(N3CCC(n4cc(CO)nn4)CC3)c(F)cc2c1=O` was tested. Which MIC [1] did it give?
Answer: The MIC was 32 µg/mL (≈ 74.7 µM).

Question: And the MIC [7]?
Answer: Its MIC is 32 µg/mL (≈ 74.7 µM).

Question: And the MIC [2]?
Answer: The MIC was 0.5 µg/mL (≈ 1.17 µM).

Question: And the MIC [3]?
Answer: The MIC was 2 µg/mL (≈ 4.67 µM).

Question: What about the MIC [4] of the same molecule?
Answer: Its MIC is 0.125 µg/mL (≈ 0.292 µM).

Question: What about the MIC [5] of the same molecule?
Answer: Its MIC is 0.5 µg/mL (≈ 1.17 µM).

Question: What about the MIC [6] of the same molecule?
Answer: The MIC was > 32 µg/mL.

Question: With `NCc1cn(C2CCN(c3nc4c(cc3F)c(=O)c(C(=O)O)cn4C3CC3)CC2)nn1` as the molecule, how does the MIC [1] read?
Answer: Its MIC is 32 µg/mL (≈ 74.9 µM).

Question: What about the MIC [7] of the same molecule?
Answer: The MIC was 32 µg/mL (≈ 74.9 µM).

Question: What about the MIC [2] of the same molecule?
Answer: The MIC was 32 µg/mL (≈ 74.9 µM).

Question: And the MIC [3]?
Answer: The MIC was > 32 µg/mL.

Question: And the MIC [4]?
Answer: The MIC was 16 µg/mL (≈ 37.4 µM).

Question: What about the MIC [5] of the same molecule?
Answer: Its MIC is 16 µg/mL (≈ 37.4 µM).

Question: What about the MIC [6] of the same molecule?
Answer: Its MIC is > 32 µg/mL.

Question: Which results are given for `COC(=O)c1cn(C2CCN(c3nc4c(cc3F)c(=O)c(C(=O)O)cn4C3CC3)CC2)nn1`?
Answer: MIC [1]: 32 µg/mL (≈ 70.1 µM); MIC [7]: 32 µg/mL (≈ 70.1 µM); MIC [2]: 1 µg/mL (≈ 2.19 µM); MIC [3]: 16 µg/mL (≈ 35.1 µM); MIC [4]: 1 µg/mL (≈ 2.19 µM); MIC [5]: 1 µg/mL (≈ 2.19 µM); MIC [6]: > 32 µg/mL

Question: Which results are given for `NC(=O)c1cn(C2CCN(c3nc4c(cc3F)c(=O)c(C(=O)O)cn4C3CC3)CC2)nn1`?
Answer: MIC [1]: 32 µg/mL (≈ 72.5 µM); MIC [7]: 32 µg/mL (≈ 72.5 µM); MIC [2]: 2 µg/mL (≈ 4.53 µM); MIC [3]: 4 µg/mL (≈ 9.06 µM); MIC [4]: 1 µg/mL (≈ 2.27 µM); MIC [5]: 4 µg/mL (≈ 9.06 µM); MIC [6]: > 32 µg/mL

Question: How did the MIC [1] turn out when `O=C(O)c1cn(C2CC2)c2nc(N3CCC(n4cc(/C=N/OCc5ccccc5)nn4)CC3)c(F)cc2c1=O` was run?
Answer: The MIC was 32 µg/mL (≈ 60.2 µM).

Question: What about the MIC [7] of the same molecule?
Answer: Its MIC is 32 µg/mL (≈ 60.2 µM).

Question: And the MIC [2]?
Answer: The MIC was 1 µg/mL (≈ 1.88 µM).

Question: And the MIC [3]?
Answer: Its MIC is 4 µg/mL (≈ 7.53 µM).

Question: What about the MIC [4] of the same molecule?
Answer: The MIC was 1 µg/mL (≈ 1.88 µM).

Question: What about the MIC [5] of the same molecule?
Answer: The MIC was 8 µg/mL (≈ 15.1 µM).

Question: And the MIC [6]?
Answer: Its MIC is 4 µg/mL (≈ 7.53 µM).

Question: What does the source list for `O=Cc1cn(C2CCN(c3nc4c(cc3F)c(=O)c(C(=O)O)cn4C3CC3)CC2)nn1`?
Answer: MIC [1]: 16 µg/mL (≈ 37.5 µM); MIC [7]: 32 µg/mL (≈ 75 µM); Ratio [8]: 16; MIC [2]: 0.031 µg/mL (≈ 0.0727 µM); MIC [3]: 2 µg/mL (≈ 4.69 µM); MIC [4]: 0.125 µg/mL (≈ 0.293 µM); MIC [5]: 0.25 µg/mL (≈ 0.586 µM); MIC [6]: > 32 µg/mL

Question: Which results are given for `CC(O)c1cn(C2CCN(c3nc4c(cc3F)c(=O)c(C(=O)O)cn4C3CC3)CC2)nn1` (stereo unspecified)?
Answer: MIC [1]: 32 µg/mL (≈ 72.3 µM); MIC [7]: 32 µg/mL (≈ 72.3 µM); MIC [2]: 2 µg/mL (≈ 4.52 µM); MIC [3]: 8 µg/mL (≈ 18.1 µM); MIC [4]: 2 µg/mL (≈ 4.52 µM); MIC [5]: 1 µg/mL (≈ 2.26 µM); MIC [6]: > 32 µg/mL

Question: What does the source list for `CO/N=C/c1cn(C2CCN(c3nc4c(cc3F)c(=O)c(C(=O)O)cn4C3CC3)CC2)nn1`?
Answer: MIC [1]: 32 µg/mL (≈ 70.3 µM); MIC [7]: 32 µg/mL (≈ 70.3 µM); MIC [2]: 0.5 µg/mL (≈ 1.1 µM); MIC [3]: 4 µg/mL (≈ 8.78 µM); MIC [4]: 0.25 µg/mL (≈ 0.549 µM); MIC [5]: 2 µg/mL (≈ 4.39 µM); MIC [6]: > 32 µg/mL

Question: Which results are given for `CCO/N=C/c1cn(C2CCN(c3nc4c(cc3F)c(=O)c(C(=O)O)cn4C3CC3)CC2)nn1`?
Answer: MIC [1]: 32 µg/mL (≈ 68.2 µM); MIC [7]: 32 µg/mL (≈ 68.2 µM); MIC [2]: 1 µg/mL (≈ 2.13 µM); MIC [3]: 4 µg/mL (≈ 8.52 µM); MIC [4]: 0.5 µg/mL (≈ 1.07 µM); MIC [5]: 4 µg/mL (≈ 8.52 µM); MIC [6]: 32 µg/mL (≈ 68.2 µM)

Question: How did the MIC [1] turn out when `C=CCO/N=C/c1cn(C2CCN(c3nc4c(cc3F)c(=O)c(C(=O)O)cn4C3CC3)CC2)nn1` was run?
Answer: Its MIC is 32 µg/mL (≈ 66.5 µM).

Question: And the MIC [7]?
Answer: The MIC was 32 µg/mL (≈ 66.5 µM).

Question: And the MIC [2]?
Answer: Its MIC is 2 µg/mL (≈ 4.15 µM).

Question: And the MIC [3]?
Answer: The MIC was 8 µg/mL (≈ 16.6 µM).

Question: And the MIC [4]?
Answer: Its MIC is 0.5 µg/mL (≈ 1.04 µM).

Question: And the MIC [5]?
Answer: The MIC was 4 µg/mL (≈ 8.31 µM).

Question: And the MIC [6]?
Answer: Its MIC is 8 µg/mL (≈ 16.6 µM).

Question: For `C#CCO/N=C/c1cn(C2CCN(c3nc4c(cc3F)c(=O)c(C(=O)O)cn4C3CC3)CC2)nn1`, which MIC [1] is on record?
Answer: The MIC was 32 µg/mL (≈ 66.7 µM).

Question: What about the MIC [7] of the same molecule?
Answer: Its MIC is 32 µg/mL (≈ 66.7 µM).

Question: What about the MIC [2] of the same molecule?
Answer: Its MIC is 1 µg/mL (≈ 2.09 µM).

Question: What about the MIC [3] of the same molecule?
Answer: The MIC was 8 µg/mL (≈ 16.7 µM).

Question: And the MIC [4]?
Answer: Its MIC is 0.5 µg/mL (≈ 1.04 µM).

Question: And the MIC [5]?
Answer: The MIC was 4 µg/mL (≈ 8.34 µM).

Question: And the MIC [6]?
Answer: The MIC was 32 µg/mL (≈ 66.7 µM).

Question: For `CCC(O)c1cn(C2CCN(c3nc4c(cc3F)c(=O)c(C(=O)O)cn4C3CC3)CC2)nn1` (stereo unspecified), which MIC [1] is on record?
Answer: Its MIC is 32 µg/mL (≈ 70.1 µM).

Question: What about the MIC [7] of the same molecule?
Answer: The MIC was 32 µg/mL (≈ 70.1 µM).

Question: And the MIC [2]?
Answer: The MIC was 2 µg/mL (≈ 4.38 µM).

Question: What about the MIC [3] of the same molecule?
Answer: Its MIC is 8 µg/mL (≈ 17.5 µM).

Question: And the MIC [4]?
Answer: The MIC was 2 µg/mL (≈ 4.38 µM).

Question: And the MIC [5]?
Answer: Its MIC is 1 µg/mL (≈ 2.19 µM).

Question: What about the MIC [6] of the same molecule?
Answer: Its MIC is > 32 µg/mL.

Question: `O=C(O)c1cn(C2CC2)c2cc(N3CCNCC3)c(F)cc2c1=O` [CIPROFLOXACIN] was tested. Which MIC [2] did it give?
Answer: Its MIC is 0.5 µg/mL (≈ 1.51 µM).

Question: What about the MIC [3] of the same molecule?
Answer: Its MIC is 1 µg/mL (≈ 3.02 µM).

Question: How did the MIC [3] turn out when `CN[C@H](CC(C)C)C(=O)N[C@H]1C(=O)N[C@@H](CC(N)=O)C(=O)N[C@H]2C(=O)N[C@H]3C(=O)N[C@H](C(=O)N[C@H](C(=O)O)c4cc(O)cc(O)c4-c4cc3ccc4O)[C@H](O)c3ccc(c(Cl)c3)Oc3cc2cc(c3O[C@@H]2O[C@H](CO)[C@@H](O)[C@H](O)[C@H]2O[C@H]2C[C@](C)(N)[C@H](O)[C@H](C)O2)Oc2ccc(cc2Cl)[C@H]1O` [VANCOMYCIN] was run?
Answer: The MIC was 0.5 µg/mL (≈ 0.345 µM).

From ChEMBL document CHEMBL1157887, “4-Substituted 4-(1H-1,2,3-triazol-1-yl)piperidine: novel C7 moieties of fluoroquinolones as antibacterial agents” (2010)
